According to PubChem BioAssay AID248 (DTP/NCI, 2004):
“And” between values parts separate entries of the source, which are not always exact repeats. Equal values may be shown once. Toxic doses and inconclusive results are not listed. Rule as the data show it: active = T/C of 150% or more; inactive = T/C below 125%.

Tested on: L1210 leukemia ip in BDF1 mice, survival T/C
Assay: NCI In Vivo Anticancer Drug Screen. Data for tumor model L1210 Leukemia (intraperitoneal) in B6D2F1 (BDF1) mice
Conditions: endpoint: mean survival time, higher = longer survival
How it was run: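 Transplanted-tumor mice were given test agent; controls received vehicle only. Survival readings from the two groups were divided (treated over control).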

[1] = dose: 100.0 mg/kg/injection, schedule: Q01DX001 (ip), vehicle: saline
[2] = dose: 200.0 mg/kg/injection, schedule: Q01DX001 (ip), vehicle: saline
[3] = dose: 50.0 mg/kg/injection, schedule: Q01DX009 (ip), vehicle: saline with Tween-80
[4] = dose: 100.0 mg/kg/injection, schedule: Q01DX009 (ip), vehicle: saline with Tween-80
[5] = dose: 100.0 mg/kg/injection, schedule: Q04DX003 (ip), vehicle: saline with Tween-80
[6] = dose: 200.0 mg/kg/injection, schedule: Q01DX009 (ip), vehicle: saline with Tween-80
[7] = dose: 200.0 mg/kg/injection, schedule: Q04DX003 (ip), vehicle: saline with Tween-80
[8] = dose: 200.0 mg/kg/injection, schedule: Q01DX001 (ip), vehicle: carboxymethylcellulose (CMC)
[9] = dose: 400.0 mg/kg/injection, schedule: Q01DX001 (ip), vehicle: carboxymethylcellulose (CMC)
[10] = dose: 400.0 mg/kg/injection, schedule: Q04DX003 (ip), vehicle: saline with Tween-80
[11] = dose: 400.0 mg/kg/injection, schedule: Q01DX009 (ip), vehicle: saline with Tween-80

Measured: T/C

CC(=O)OCCSC#N
inactive: dose: 12.5 mg/kg/injection, schedule: Q04DX003 (ip), vehicle: saline with Tween-80 98 % of control | dose: 25.0 mg/kg/injection, schedule: Q04DX003 (ip), vehicle: saline with Tween-80 97 % of control

O=[N+]([O-])c1ccc(Cl)cc1/C=N/NC(=S)Nc1cccc2cccnc12
inactive: [1] 100 % of control | [2] 103 % of control | dose: 400.0 mg/kg/injection, schedule: Q01DX001 (ip), vehicle: saline 100 % of control

C[N+]1(Cc2ccccc2)CCC(=O)CC1
inactive: dose: 50.0 mg/kg/injection, schedule: Q01DX001 (ip), vehicle: saline 97 % of control | [1] 100 % of control | [2] 103 % of control

O=C1CCN(Cl)C(=O)N1Cl
inactive: dose: 5.0 mg/kg/injection, schedule: Q01DX001 (ip), vehicle: saline 93 % of control | dose: 10.0 mg/kg/injection, schedule: Q01DX001 (ip), vehicle: saline 95 % of control | dose: 20.0 mg/kg/injection, schedule: Q01DX001 (ip), vehicle: saline 97 % of control

C#CCCC#C
inactive: [3] 104 % of control | [4] 109 % of control | [5] 103 % of control | [6] 102 % of control | [7] 104 % of control

NCC1OC(OC2C(CO)OC(OC3C(O)C(N)CC(N)C3OC3OC(CN)C(O)C(O)C3N)C2O)C(N)C(O)C1O (stereo not drawn)
inactive: dose: 37.5 mg/kg/injection, schedule: Q01DX001 (ip), vehicle: saline 100 % of control | dose: 75.0 mg/kg/injection, schedule: Q01DX001 (ip), vehicle: saline 105 % of control | dose: 150.0 mg/kg/injection, schedule: Q01DX001 (ip), vehicle: saline 111 % of control

CCOc1ccc(NC(=O)OCCN2CCN(CCc3ccccc3)C(C)C2)cc1 (stereo not drawn)
inactive: [1] 98 % of control | [2] 95 % of control

C/C=C(/C#N)c1ccccc1
inactive: [3] 107 % of control | [4] 106 % of control | [5] 90 % of control | [6] 100 % of control | [7] 96 % of control

Cc1ccc(CN(CC(=O)O)S(C)(=O)=O)cc1
inactive: dose: 100.0 mg/kg/injection, schedule: Q01DX009 (ip), vehicle: other 105 % of control | dose: 100.0 mg/kg/injection, schedule: Q04DX003 (ip), vehicle: other 95 % of control | dose: 200.0 mg/kg/injection, schedule: Q01DX009 (ip), vehicle: other 98 % of control | dose: 200.0 mg/kg/injection, schedule: Q04DX003 (ip), vehicle: other 97 % of control | dose: 400.0 mg/kg/injection, schedule: Q01DX009 (ip), vehicle: other 110 % of control | dose: 400.0 mg/kg/injection, schedule: Q04DX003 (ip), vehicle: other 101 % of control

Cc1ccc(NCC(=O)O)cc1
inactive: dose: 100.0 mg/kg/injection, schedule: Q01DX Z (ip), vehicle: methylcellulose (MC) 101 % of control | dose: 200.0 mg/kg/injection, schedule: Q01DX Z (ip), vehicle: methylcellulose (MC) 101 % of control

OC(c1nc2ccc(Cl)cc2[nH]1)C(O)C(O)C(O)c1nc2ccc(Cl)cc2[nH]1 (stereo not drawn)
inactive: dose: 100.0 mg/kg/injection, schedule: Q01DX001 (ip), vehicle: carboxymethylcellulose (CMC) 90 % of control | [8] 101 % of control | [9] 103 % of control

Nc1sc(C(=O)O)cc1[N+](=O)[O-]
inactive: [8] 92 % of control | [9] 92 % of control

O=[N+]([O-])c1ccc(/C=N/c2oc(-c3ccc([N+](=O)[O-])cc3)nc2SCc2ccccc2)cc1
inactive: dose: 50.0 mg/kg/injection, schedule: Q04DX002 (ip), vehicle: Klucel (hydroxypropylcellulose) (HPC) 100 % of control | dose: 100.0 mg/kg/injection, schedule: Q04DX002 (ip), vehicle: Klucel (hydroxypropylcellulose) (HPC) 100 % of control | dose: 200.0 mg/kg/injection, schedule: Q04DX002 (ip), vehicle: Klucel (hydroxypropylcellulose) (HPC) 116 % of control

Cn1nc(NC(=O)C(F)(F)F)c2nccnc21
inactive: [4] 95 % of control | [5] 100 % of control | [6] 94 % of control | [7] 101 % of control | [10] 108 % of control

CCCCCCc1ccccc1
inactive: [4] 98 % of control | [5] 105 % of control | [6] 98 % of control | [7] 94 % of control | [11] 88 % of control | [10] 95 % of control

Cc1ccccc1C1c2ccccc2C(=O)c2cccc(C)c21 (stereo not drawn)
inactive: [4] 101 % of control | [5] 89 % of control | [6] 101 % of control | [7] 102 % of control | [11] 97 % of control | [10] 94 % of control

CCP(=O)(CC)CC
inactive: dose: 1000.0 mg/kg/injection, schedule: Q01DX Z (ip), vehicle: saline 104 % of control | dose: 2000.0 mg/kg/injection, schedule: Q01DX Z (ip), vehicle: saline 101 % of control

O=C1/C(=C/c2ccco2)CC2CCCCC12 (stereo not drawn)
inactive: dose: 50.0 mg/kg/injection, schedule: Q01DX009 (ip), vehicle: saline 95 % of control | dose: 100.0 mg/kg/injection, schedule: Q01DX009 (ip), vehicle: saline 102 % of control | dose: 100.0 mg/kg/injection, schedule: Q04DX003 (ip), vehicle: saline 88 % of control | dose: 200.0 mg/kg/injection, schedule: Q01DX009 (ip), vehicle: saline 90 % of control | dose: 200.0 mg/kg/injection, schedule: Q04DX003 (ip), vehicle: saline 102 % of control

O=C(c1cccnc1)C1Cc2ccccc2C1=O (stereo not drawn)
inactive: dose: 100.0 mg/kg/injection, schedule: Q04DX003 (ip), vehicle: saline sonified 100 % of control | dose: 200.0 mg/kg/injection, schedule: Q04DX003 (ip), vehicle: saline sonified 96 % of control | dose: 400.0 mg/kg/injection, schedule: Q04DX003 (ip), vehicle: saline sonified 91 % of control

O=[N+]([O-])c1ccc(/C=C\c2ccc(Cl)cc2S(=O)(=O)F)c(Cl)c1
inactive: dose: 100.0 mg/kg/injection, schedule: Q01DX009 (ip), vehicle: saline sonified 97 % of control | [5] 102 % of control | dose: 200.0 mg/kg/injection, schedule: Q01DX009 (ip), vehicle: saline sonified 97 % of control | [7] 96 % of control | dose: 400.0 mg/kg/injection, schedule: Q01DX009 (ip), vehicle: saline sonified 96 % of control | [10] 100 % of control

COc1ccc(COC(=O)Nc2ccccc2)cc1
inactive: dose: 75.0 mg/kg/injection, schedule: Q01DX001 (ip), vehicle: carboxymethylcellulose (CMC) 101 % of control | dose: 150.0 mg/kg/injection, schedule: Q01DX001 (ip), vehicle: carboxymethylcellulose (CMC) 98 % of control

CCN(CC)C(=O)COc1ccc(Cl)cc1
inactive: dose: 100.0 mg/kg/injection, schedule: Q04DX002 (ip), vehicle: saline 114 % of control | dose: 200.0 mg/kg/injection, schedule: Q04DX002 (ip), vehicle: saline 107 % of control | dose: 400.0 mg/kg/injection, schedule: Q04DX002 (ip), vehicle: saline 118 % of control

C1COCOC1
inactive: dose: 50.0 mg/kg/injection, schedule: Q01DX009 (ip), vehicle: acetone 109 % of control | dose: 100.0 mg/kg/injection, schedule: Q01DX009 (ip), vehicle: acetone 106 % of control | dose: 200.0 mg/kg/injection, schedule: Q01DX009 (ip), vehicle: acetone 119 % of control

Cn1ncc2c1C1(C)CCC2C1(C)C (stereo not drawn)
inactive: dose: 50.0 mg/kg/injection, schedule: Q01DX009 (ip), vehicle: Klucel (hydroxypropylcellulose) (HPC) 89 % of control | dose: 100.0 mg/kg/injection, schedule: Q04DX003 (ip), vehicle: Klucel (hydroxypropylcellulose) (HPC) 102 % of control | dose: 200.0 mg/kg/injection, schedule: Q01DX009 (ip), vehicle: Klucel (hydroxypropylcellulose) (HPC) 92 % of control | dose: 200.0 mg/kg/injection, schedule: Q04DX003 (ip), vehicle: Klucel (hydroxypropylcellulose) (HPC) 107 % of control

NC(N)=NN=C(c1ccc([N+](=O)[O-])s1)c1ccc([N+](=O)[O-])s1
inactive: dose: 15.0 mg/kg/injection, schedule: Q01DX Z (ip), vehicle: carboxymethylcellulose (CMC) 97 % of control | dose: 30.0 mg/kg/injection, schedule: Q01DX Z (ip), vehicle: carboxymethylcellulose (CMC) 95 % of control | dose: 60.0 mg/kg/injection, schedule: Q01DX Z (ip), vehicle: carboxymethylcellulose (CMC) 97 % of control and 105 % of control | dose: 120.0 mg/kg/injection, schedule: Q01DX Z (ip), vehicle: carboxymethylcellulose (CMC) 94 % of control and 95 % of control | dose: 240.0 mg/kg/injection, schedule: Q01DX Z (ip), vehicle: carboxymethylcellulose (CMC) 100 % of control | dose: 480.0 mg/kg/injection, schedule: Q01DX Z (ip), vehicle: carboxymethylcellulose (CMC) 90 % of control
